Tests used:
[1] = test system: murine neutrophils (HDNs from 4T1-tumor bearing mice); assay: Titration of binding to purified HDNs, flow cytometry; design: species or system mouse; settings: tetramer-SA complex of control peptide
Description: Analysis was performed by flow cytometry.

[2] = test system: human neutrophils; assay: 16-KFP binding in whole blood; settings: healthy donor
Description: (§1) A biotinylated KFP-tetramer multiantigen (designated 16-KFP) was generated in the same manner as the 16-LQI. In whole blood, 16-KFP bound ˜80% of human neutorophils and less than 10% of non-neutrophil WBC (FIG. 15A).

[3] = test system: non-neutrophil WBC; assay: 16-KFP binding in whole blood; design: species or system human; settings: healthy donor
Description: as §1

[4] = test system: neutrophils; assay: Effect of KFP-tetramer / 16-KFP on neutrophil activation (ROS production); format: cell-based, human
Description: as §1

[5] = test system: neutrophils; assay: Effect of KFP-tetramer / 16-KFP on neutrophil viability (microscopy, flow cytometry); format: cell-based, human
[6] = test system: neutrophils; assay: Effect of KFP-tetramer / 16-KFP on neutrophil chemotaxis; format: cell-based, human
Description: as §1

[7] = molecular target: T1, CD177 (Homo sapiens, UniProt Q8N6Q3); assay: Pull-down with KFP-tetramer as bait, mass spectrometry; format: binding
T1 construct: endogenous in cells; host or cells: human neutrophils from healthy donors, COPD patients and lung cancer patients
T1 sequence (Q8N6Q3 22-408): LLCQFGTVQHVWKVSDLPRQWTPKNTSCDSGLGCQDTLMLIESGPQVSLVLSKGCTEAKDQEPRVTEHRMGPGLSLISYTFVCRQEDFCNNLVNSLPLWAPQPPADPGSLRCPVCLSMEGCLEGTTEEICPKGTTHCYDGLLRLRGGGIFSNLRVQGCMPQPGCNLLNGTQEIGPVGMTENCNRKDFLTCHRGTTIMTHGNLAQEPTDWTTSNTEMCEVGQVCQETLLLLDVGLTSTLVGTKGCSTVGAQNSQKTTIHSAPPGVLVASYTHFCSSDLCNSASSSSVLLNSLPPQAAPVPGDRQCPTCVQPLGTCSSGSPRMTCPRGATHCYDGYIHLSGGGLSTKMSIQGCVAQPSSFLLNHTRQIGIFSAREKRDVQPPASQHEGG
Description: (§2) Similarly, the human CD177 was identified as a binding-partner of the peptides binding to human neutrophils (SEQ ID NOs: 1-8). […] Still, the extent of KFP-tetramer binding and CD177 levels fit well within the correlation plot and support the role of CD177 in mediating the binding of the KFP-tetramer to neutrophils (FIG. 22B).

[8] = molecular target: T1, CD177; assay: Correlation of CD177 expression and KFP-tetramer binding in donors; settings: healthy donors, patients with COPD and lung cancer patients
Description: FIGS. 22A-C: (22A) Bar graph of 16-KFP binding and CD177 expression of neutrophils of healthy donors (2, 6, 10), COPD patients (11, 12) and lung cancer patients (13). (22B) Line graph of correlation between CD177 expression and 16-KFP binding in different donors. (22C) Bare graph of binding of 16-KFP to neutrophils with increasing amounts of CD177 blocking antibody.
as §2

| Substance | binding to murine neutrophils [1] | human neutrophils bound [2] [%] | non-neutrophil WBC bound [3] | effect on neutrophil activation (ROS production, FIG. 15B) [4] | effect on neutrophil viability [5] | effect on chemotactic properties [6] | binding partner identified [7] | chemoattraction of neutrophils ([6]; FIG. 15E) | effect on neutrophil attraction to CXCL2 ([6]; FIG. 15F) | correlation between CD177 expression and binding to neutrophils [8] |
| --- | --- | --- | --- | --- | --- | --- | --- | --- | --- | --- |
| 16-KFP: biotinylated KFP-tetramer multiantigen generated in the same manner as 16-LQI; tetramer-SA complex used as control on murine neutrophils [Peptide 16-KFP] | did not show binding | ~80 | less than 10% | no significant effect | no significant effect | no significant effect | CD177 was identified as the binding partner |  |  |  |
| (KFPDLDSRRLPHMSL (SEQ ID NO: 1) Doa-Doa-C)4-(Mpa)-4-Lys2-Lys-beta-Ala-Lys(Biotin)-beta-Ala-OH [KFP tetramer] |  |  |  | no effect |  |  |  | not chemoattractive | no effect | strong positive correlation |

Reference: patent US11952431B2, “Neutrophil-binding peptides” (YISSUM RESEARCH DEVELOPMENT COMPANY OF THE HEBREW …, priority 2020, dated 2024)
